Source: US8592446B2, “[1,10]-phenanthroline derivatives for the treatment of neurodegenerative or haematological diseases” (Noscira, S.A., priority 2007, dated 2013)

Legend:
[1] = system: SH-SY5Y human neuroblastoma cells; experiment: Protection against 6-OHDA-induced cell death, condition A (10% foetal bovine serum); format: cell-based; details: preincubated 2 hours, 6-OHDA 75 μM 16 hours, read-out: Protect. 6-OHDA (+ FBS) (minimum concentration with neuroprotective effect)
From the text: (§1) The aim of this experiment is to determine the protective effect of the compounds of formula (1) against the toxicity caused by 6-OHDA. This toxin induces a cell death similar to which occurs in Parkinson's disease, destroying dopaminergic neurons (“MPTP and 6-hydroxydopamine-induced neurodegeneration as models for Parkinson's disease: neuroprotective strategies”; Grunblatt E, et al.; J Neurol. 2000 Apr; 247 Suppl 2:II95-102).
(§2) Two or three days before the experiment, the SH-SY5Y human neuroblastoma cells are seeded into 96-well culture plate at a density of 10^4 cells/well. Cells are exposed to the treatment with 6-OHDA and, finally, cell death is measured by LDH quantification. As positive control we used NAC.
• A) NAC and the compound of formula (I) are preincubated during 2 hours before the treatment with 6-OHDA 75 μM during 16 hours. The assay is performed in medium containing 10% Foetal bovine serum.
(§3) For each compound the minimum concentration of compound of formula (I) at which a neuroprotective effect is shown.

[2] = Chelating ability with Cu (II) (absorbance spectra); format: physicochemical; details: for Ability to complex Cu (II) (spectrum of mixture vs sum of individual spectra): 200 μM, PBS 10 mM, pH 7.4, FIG. 6
Description: FIG. 6 depicts the absorbance spectra of the mixture of Cu (II) and each of the quelating ligands (Compound 4, Compound 7, Compound 8). Concentration of Cu(II) and all compounds 200 μM, PBS 10 mM, pH 7.4.
FIG. 7 is the absorbance spectra of the complex Cu(II)-Compound 10. Concentration 200 μM, PBS 10 mM, pH 7.4.
(§4) Therefore, it may be observed that the compounds of formula (I) have a high affinity to Fe (II) in comparison to the rest of metalic ions tested.

[3] = system: SH-SY5Y human neuroblastoma cells; experiment: Protection against 6-OHDA-induced cell death, condition B (no fetal bovine serum); format: cell-based; details: preincubated 1 hour, 6-OHDA 50 μM 24 hours, read-out: Protect. 6-OHDA (−FBS) (minimum concentration with neuroprotective effect)
From the text: as §1, §2
• B) NAC and the compound of formula (I) are preincubated during 1 hour before the treatment with 6-OHDA 50 μM during 24 hours. The assay is performed in a medium without any fetal bovine serum.
as §3

[4] = system: Aβ (1-40) secretion by CHO7W cells (stably transfected with human APP751 wt cDNA); experiment: Inhibition of Aβ(1-40) secretion (ELISA, cellular supernatants); format: cell-based; details: Aβ 1-40 ELISA
From the text: To quantitate Aβ secretion ELISA-based method was used. The assay consists in detection of antigen by selective monoclonal anti-Aβ-antibodies at two different epitopes forming a “Sandwich-complex”, that is detected by colorimetric measure due to the binding of a secondary antibody conjugated with peroxidase that catalyses the conversion of a substrate or chromogen, TMB, into a coloured product, directly proportional to the peptide quantity in the sample. The Aβ production has been analyzed by ELISA, using a colorimetric commercial kit: Immunoassay Kit Human β Amyloid 1-40 (Biosource).
Aβ (1-40) were quantified from cellular supernatants. An APP-transfected cell line has been employed for the experiments: CHO7W (stably transfected with human APP751 wt cDNA). The cells were grown in a culture medium consisting of DMEM supplemented with 2% Fetal bovine serum, 1% penicillin-streptomycin, 1% L-glutamine and 200 μg/ml G418. Cells are seeded in 96-well culture microplate, at 5000 cells/well and treatment with different compounds at different concentrations is performed 24 hour after seeding.
OM99-2 (H-5108, Bachem), a BACE inhibitor, was used as Aβ secretion reduction positive control in all the Aβ secretion studies. The cells were treated with this compound at 3 μM concentration, culture media were collected at 24 hours.

[5] = Chelating ability with Fe(II) (absorbance spectra); format: physicochemical; details: for Formation constant: Fe (II) complex 1:3 (ML3); for Dissociation grade / Stoichiometry / ε approx.: Fe (II) complex; for Ability to complex Fe (II) (spectrum of mixture vs sum of individual spectra): PBS 10 mM, pH 7.4 or 8, FIGS. 2-5
Description: FIG. 2 is an absorbance spectrum of the complex Fe(II)-Compound 4. Concentration of Fe(II) and Compound 4, 200 μM, PBS 10 mM, pH 8.
FIG. 3 is an absorbance spectrum of the complex Fe(II)-Compound 7. Concentration of Fe(II) and Compound 7 , 400 μM, PBS 10 mM, pH 8.
FIG. 4 is an absorbance spectrum of the complex Fe(II)-Compound 8. Concentration of Fe(II) and Compound 8, 200 μM, PBS 10 mM, pH 7.4.
FIG. 5 is an absorbance spectrum of the complex Fe(II)-Compound 10. Concentration of Fe(II) and Compound 10, 100 μM, PBS 10 mM, pH 7.4.
as §4

[6] = Chelating ability with Zn (II) (absorbance spectra); format: physicochemical; details: for Ability to complex Zn(II): PBS 10 mM, pH 7.4, FIGS. 8-11; for Dissociation grade / Stoichiometry / ε approx.: Zn (II) complex, pH 7.4, expecting time 24 h (4, 7) or 4 h (8, 10)
Description: FIG. 8 represents the absorbance spectra of the complex Zn(II)-Compound 4. Concentration 200 μM, PBS 10 mM, pH 7.4.
Concentration 180 μM, PBS 10 mM, pH 7.4.
Concentration 100 μM, PBS 10 mM, pH 7.4.
Concentration 20 μM, PBS 10 mM, pH 7.4. […]

[7] = Chelating ability with Fe (III) (absorbance spectra); format: physicochemical; details: PBS 10 mM, pH 7.4, ligand and Fe(III) 200 μM, FIG. 1
Description: FIG. 1 is an absorbance spectrum of compounds 4, 7, 8 and 10 in absence and presence of Fe(III). PBS 10 mM, pH 7.4. Concentration of ligand and Fe(III), 200 μM.
Only one line is observed, as the spectra are overlapping (see FIG. 1).

SH-SY5Y cells = experiment: Neuroprotection against Aβ25-35 toxicity (LDH assay); format: cell-based; details: Homo sapiens, pre-treated 1 hour, 200 μM Aβ25-35 24 hours, read-out: Protect. beta-Amyloid25-35 (minimum concentration showing neuroprotection)
Description: In order to evaluate potential neuroprotection of compounds, SH-SY5Y cells, cultured in 96-well plates, were pre-treated for 1 hour with the compound at different concentrations and then exposed 24 hours to 200 μM Aβ25-35 (Neosystem) to induce extensive oxidative stress and cell death. The ability of the compound of protecting against this toxicity is then evaluated by measuring intracellular LDH, using the colorimetric LDH assay.
It is widely accepted that the neurotoxic activity of Aβ resides within amino acids 25-35 (see e.g. Yankner B A et al., (1990) Neurotrophic and neurotoxic effects of amyloid β protein: reversal by tachykinin neuropeptides; Science 250:279-282).

[8] = pH 8*, expecting time 30 min (4) or 60 min (7)
[9] = Zn (II) complex 1:2 (ML2), pH 7.4, expecting time 24 h (7) or 4 h (8, 10)
[10] = pH 7.4, expecting time Immediate
[11] = Cu (II) complex, pH 7.4, expecting time 2 h

SMILES | minimal effective concentration [1] | Ability to complex Cu (II) (spectrum of mixture vs sum of individual spectra) [2] | minimal effective concentration [3] | Formation constant [5, 8] | Dissociation grade [5, 8] | Stoichiometry [5, 8] | ε approx. [5, 8] | Ability to complex Fe (II) (spectrum of mixture vs sum of individual spectra) [5] | Ability to complex Zn(II) [6] | Formation constant [6, 9] | Dissociation grade [6] | Stoichiometry [6] | ε approx. [6] | Ability to complex Fe (III) (change in absorbance spectra) [7] | minimal effective concentration (SH-SY5Y cells) | Inhibition secretion beta-amyloid (minimum concentration) [4] | Formation constant [5, 10] | Dissociation grade [5, 10] | Stoichiometry [5, 10] | ε approx. [5, 10] | other results
CC(C)Sc1cc(/C=N/O)nc2c1ccc1cccnc12 [Compound 7, 4-Isopropylsulfanyl-[1,10]phenanthroline-2-carbaldehyde oxime] | 0.05 µM | none of the ligands are able to complex the Cu (II) | 0.5 µM | 2.0 ± 0.6 · 10^15 | 0.023 ± 0.002 | 1:3 (ML3) | ~280 L/mol/cm | able to complex the Fe (II) | complexed with Zn(II) to an extent | 2.2 ± 0.6 · 10^10 l^2/mol^2 | 13.4 ± 0.7 | 1:2 (ML2) | ~840 L/mol/cm | no change in the absorbance spectra |  |  |  |  |  |  | minimal effective concentration ([4]; read-out: Inhibition secretion beta-amyloid (minimum concentration)): 1 nM
CSc1cc(/C=N/O)nc2c1ccc1cccnc12 [Compound 4, 4-Methylsulfanyl-[1,10]phenanthroline-2-carbaldehyde oxime] | 0.05 µM | none of the ligands are able to complex the Cu (II) | 0.5 µM | 8.2 ± 0.5 · 10^12 | 0.147 ± 0.002 | 1:3 (ML3) | ~1800 L/mol/cm | able to complex the Fe (II) | complexed with Zn(II) to an extent |  | 46 ± 7 | 1:1 (ML) | ~1000 L/mol/cm | no change in the absorbance spectra | 0.5 µM | 0.05 mM |  |  |  |  | Formation constant ([6]; Zn (II) complex 1:1 (ML), pH 7.4, expecting time 24 h): 2.2 ± 0.6 · 10^4 l/mol
COCCOc1cc(/C=N/O)nc2c1ccc1cccnc12 [Compound 8, 4-(2-Methoxy-ethoxy)-[1,10]phenanthroline-2-carbaldehyde oxime] | 0.05 µM | none of the ligands are able to complex the Cu (II) | 0.5 µM |  |  |  |  | able to complex the Fe (II) | complexed with Zn(II) to an extent | 1.4 ± 0.6 · 10^11 l^2/mol^2 | 7.7 ± 0.6 | 1:2 (ML2) | ~7100 L/mol/cm | no change in the absorbance spectra | 0.5 µM | 1 mM | 4.0 ± 1.3 · 10^17 | 0.022 ± 0.006 | 1:3 (ML3) | ~1600 L/mol/cm | 
CCN(CC)CCOc1cc(/C=N/O)nc2c1ccc1cccnc12 [Compound 10, 4-(2-Diethylamino-ethoxy)-[1,10]phenanthroline-2-carbaldehyde oxime] | 0.05 µM |  | 0.5 µM |  |  |  |  | able to complex the Fe (II) | complexed with Zn(II) to an extent | 1.7 ± 0.4 · 10^13 l^2/mol^2 | 3.7 ± 0.6 | 1:2 (ML2) | ~9400 L/mol/cm | no change in the absorbance spectra | 0.5 µM | 1 mM | 5.0 ± 1.0 · 10^17 | 0.019 ± 0.004 | 1:3 (ML3) | ~6700 L/mol/cm | Formation constant ([2]; Cu (II) complex 1:1 (ML), pH 7.4, expecting time 2 h): 4.4 ± 0.6 · 10^6 l/mol; Dissociation grade [2, 11]: 3.8 ± 0.4; Stoichiometry [2, 11]: 1:1 (ML); ε approx. [2, 11]: ~400 L/mol/cm
